The test system of data set [1] is C. albicans (ATCC 90028) and C. neoformans (H99, ATCC 208821). In words: Broth microdilution MIC assay, fungi. The data set is classed as cell-based. As to conditions: for MIC: Candida albicans, read-out: antifungal MIC.
The nature of data set [2]: Mammalian cytotoxicity assay (resazurin), HepG2. The settings on record: human, HepG2 cells. (The colour change of resazurin is a common sign of viable cells or microbes.)
Data set [3] is described as follows: Mammalian cytotoxicity assay (resazurin), HEK293. The settings on record: human, HEK293 cells.
Data set [4] in a line: Kinetic solubility determination by LC-UV. As to conditions: room temperature, 1% DMSO.
Data set [5] concerns L. donovani MHOM/IN/80/DD8 (ATCC50212). The data set is described as follows: L. donovani DD8 intracellular (THP-1) amastigote assay. In kind it is cell-based. As to conditions: Leishmania donovani.
The test system of data set [6] is C. difficile (630, ATCC BAA-1382). In words: Broth microdilution MIC assay, C. difficile. The data set is classed as cell-based, Clostridium difficile. As to conditions: 630 ATCC BAA-1382, median MIC; for MIC: Clostridioides difficile, ATCCBAA1382, read-out: antibacterial MIC C. difficile. For orientation: Dilution methods test growth across graded concentrations, often in twofold steps.

A short description of data set [7]: Broth microdilution MIC assay, ESKAPE pathogens. In kind it is cell-based. The settings on record: S. aureus, E. coli, K. pneumoniae, A. baumannii, P. aeruginosa; read-out: antibacterial MIC ESKAPE.
The test system of data set [8] is ESKAPE pathogens S. aureus (ATCC 43300), E. coli (ATCC 25922), K. pneumoniae (ATCC 700603), A. baumannii (ATCC 19606), P. aeruginosa (ATCC 27853). The data set is described as follows: Broth microdilution MIC assay, ESKAPE pathogens. In kind it is cell-based.
Setting [9] is: PBS, pH 7.4, Solubility µM (PBS), PBS pH 7.4, 24 h.
Setting [10] is: water, Solubility µM (H2O), 24 h.
[11] abbreviates: read-out: antiparasitic IC50 L. donovani.
Setting [12] is: read-out: antiparasitic pIC50 ± SE L. donovani (converted).

Values after ≈ are worked out from the molar mass of the structure shown. Like-named read-outs stand apart in the source and are kept apart here. Marks after values point to notes of the source that are not given here.

Consider `CC(=O)OCCOc1nc(-c2ccccc2)cn2cc([N+](=O)[O-])nc12` [24c, 2-((2-Nitro-6-phenylimidazo[1,2-a]pyrazin-8-yl)oxy)ethyl Acetate], for which the “antifungal MIC” value in data set [1] was greater than 32 µg/mL. Further, the MIC (as a rule, the least concentration at which growth counts as inhibited) in data set [1] was greater than 32 µg/mL; in data set [6] it was greater than 64 µg/mL; in data set [7], greater than 32 µg/mL. Besides, the half-maximal cytotoxic concentration (CC50) at 24 h in data set [2] and in data set [3] was greater than 100 µM throughout. Besides, the solubility at 24 h in data set [4] (setting [9]) and in data set [4] (setting [10]) was less than 5 µM each time. In addition, the IC50 in data set [5] (setting [11]) was greater than 80 µM; in data set [5] (setting [12]), greater than 79.4 µM. Besides, the “antibacterial MIC C. difficile” value in data set [6] is greater than 64 µg/mL. For the same compound, the “antibacterial MIC ESKAPE” value in data set [8] is greater than 32 µg/mL.

In the case of `O=[N+]([O-])c1cn2cc(-c3ccccc3)nc(OCCO)c2n1` [24e, 2-((2-Nitro-6-phenylimidazo[1,2-a]pyrazin-8-yl)oxy)ethan-1-ol], the “antifungal MIC” value in data set [1] is greater than 32 µg/mL. Also, the values for the MIC in data set [1], in data set [6] and in data set [7] were greater than 32 µg/mL, greater than 64 µg/mL and 16 to 32 µg/mL (≈ 53.3 to 107 µM), respectively. Further, the CC50 at 24 h in data set [2] and in data set [3] was greater than 100 µM throughout. For the same compound, the solubility at 24 h in data set [4] (setting [9]) and in data set [4] (setting [10]) was less than 5 µM throughout. Further, the IC50 in data set [5] (setting [11]) was greater than 80 µM; in data set [5] (setting [12]), greater than 79.4 µM. Further, the “antibacterial MIC C. difficile” value in data set [6] is greater than 64 µg/mL. Besides, the “antibacterial MIC ESKAPE” value in data set [8] is recorded as 16-32* μg/mL.

As for `Cc1ccc(Cn2c(C)cn3cc([N+](=O)[O-])nc3c2=O)cc1` [25h, 6-Methyl-7-(4-methylbenzyl)-2-nitroimidazo[1,2-a]pyrazin-8(7H)-one], in data set [1], the “antifungal MIC” value is greater than 32 µg/mL. The minimal inhibitory concentration (MIC) in data set [1] and in data set [7] was greater than 32 µg/mL in each case. Also, the half-maximal cytotoxic concentration (CC50) at 24 h in data set [2] and in data set [3] was greater than 100 µM in each case. In addition, in data set [4] (setting [10]), the solubility (in general, the dissolved amount per volume that the medium holds) at 24 h was found to be 7.5 ± 0.245 µM (≈ 2.24 µg/mL). Further, the IC50 is greater than 40 µM in data set [5] (setting [11]) and greater than 39.8 µM in data set [5] (setting [12]). Moreover, the “antibacterial MIC ESKAPE” value in data set [8] is greater than 32 µg/mL.

As to `Cc1ccc(COc2nc(C)cn3cc([N+](=O)[O-])nc23)cc1` [25i, 6-Methyl-8-((4-methylbenzyl)oxy)-2-nitroimidazo[1,2-a]pyrazine], the “antifungal MIC” value in data set [1] was greater than 32 µg/mL. For the same compound, the minimum inhibitory concentration (MIC) in data set [1] and in data set [7] was greater than 32 µg/mL each time. In addition, the CC50 at 24 h in data set [2] and in data set [3] was greater than 100 µM in each case. In addition, the solubility at 24 h in data set [4] (setting [9]) and in data set [4] (setting [10]) was less than 5 µM in each case. The “antibacterial MIC ESKAPE” value in data set [8] is greater than 32 µg/mL.

With `Cc1cn2cc([N+](=O)[O-])nc2c(=O)n1Cc1cccc(OC(F)(F)F)c1` [25j, 6-Methyl-2-nitro-7-(3-(trifluoromethoxy)benzyl)imidazo[1,2-a]pyrazin-8(7H)-one], the “antifungal MIC” value in data set [1] was greater than 32 µg/mL. The MIC in data set [1] and in data set [7] was greater than 32 µg/mL each time. Moreover, the CC50 at 24 h in data set [2] and in data set [3] was greater than 100 µM throughout. Besides, the solubility at 24 h in data set [4] (setting [9]) and in data set [4] (setting [10]) was less than 5 µM each time. Moreover, the IC50 in data set [5] (setting [11]) and in data set [5] (setting [12]) was greater than 20 µM each time. The “antibacterial MIC ESKAPE” value in data set [8] is greater than 32 µg/mL.

Turning to `Cc1cn2cc([N+](=O)[O-])nc2c(=O)n1Cc1ccccc1OC(F)(F)F` [25l, 6-Methyl-2-nitro-7-(2-(trifluoromethoxy)benzyl)imidazo[1,2-a]pyrazin-8(7H)-one], the “antifungal MIC” value in data set [1] was greater than 32 µg/mL. For the same compound, the MIC in data set [1] and in data set [7] was greater than 32 µg/mL each time. Further, the half-maximal cytotoxic concentration (CC50) at 24 h in data set [2] and in data set [3] was greater than 100 µM in each case. The solubility at 24 h in data set [4] (setting [9]) and in data set [4] (setting [10]) was less than 5 µM throughout. Further, the IC50 in data set [5] (setting [11]) is greater than 40 µM; in data set [5] (setting [12]), greater than 39.8 µM. The “antibacterial MIC ESKAPE” value in data set [8] was greater than 32 µg/mL.

With `Cc1cn2cc([N+](=O)[O-])nc2c(OCc2ccccc2OC(F)(F)F)n1` [25m, 6-Methyl-2-nitro-8-((2-(trifluoromethoxy)benzyl)oxy)imidazo[1,2-a]pyrazine], the MIC in data set [1] and in data set [7] was greater than 32 µg/mL throughout. Further, the CC50 at 24 h in data set [2] and in data set [3] was greater than 100 µM in each case. The solubility at 24 h in data set [4] (setting [9]) and in data set [4] (setting [10]) was less than 5 µM throughout. Moreover, the results for the IC50 in data set [5] (setting [11]) and in data set [5] (setting [12]) were greater than 40 µM and greater than 39.8 µM, respectively.

Consider `Cc1ccc(Cn2c(C)c(C)n3cc([N+](=O)[O-])nc3c2=O)cc1` [26d, 5,6-Dimethyl-7-(4-methylbenzyl)-2-nitroimidazo[1,2-a]pyrazin-8(7H)-one], for which the “antifungal MIC” value in data set [1] is greater than 32 µg/mL. The minimal inhibitory concentration (MIC) in data set [1] and in data set [7] was greater than 32 µg/mL throughout. The CC50 at 24 h in data set [2] and in data set [3] was greater than 100 µM each time. The solubility at 24 h was 6.13 ± 0.0957 µM (≈ 1.91 µg/mL) in data set [4] (setting [9]) and 8.95 ± 1.51 µM (≈ 2.8 µg/mL) in data set [4] (setting [10]). The IC50 was greater than 40 µM in data set [5] (setting [11]) and greater than 39.8 µM in data set [5] (setting [12]). In data set [8], the “antibacterial MIC ESKAPE” value was greater than 32 µg/mL.

In the case of `Cc1ccc(COc2nc(C)c(C)n3cc([N+](=O)[O-])nc23)cc1` [26e, 5,6-Dimethyl-8-((4-methylbenzyl)oxy)-2-nitroimidazo[1,2-a]pyrazine], in data set [1], the “antifungal MIC” value was greater than 32 µg/mL. Besides, the MIC in data set [1] and in data set [7] was greater than 32 µg/mL in each case. Moreover, the cytotoxic concentration (CC50) at 24 h in data set [2] and in data set [3] was greater than 100 µM in each case. For the same compound, the solubility at 24 h in data set [4] (setting [9]) and in data set [4] (setting [10]) was less than 5 µM each time. Moreover, the IC50 in data set [5] (setting [11]) and in data set [5] (setting [12]) was greater than 20 µM throughout. In addition, the “antibacterial MIC ESKAPE” value in data set [8] is greater than 32 µg/mL.

With `Cc1nc(OCc2cccc(OC(F)(F)F)c2)c2nc([N+](=O)[O-])cn2c1C` [26g, 5,6-Dimethyl-2-nitro-8-((3-(trifluoromethoxy)benzyl)oxy)imidazo[1,2-a]pyrazine], the “antifungal MIC” value in data set [1] was greater than 32 µg/mL. In addition, the minimal inhibitory concentration (MIC) in data set [1] and in data set [7] was greater than 32 µg/mL in each case. Also, the 50% cytotoxic concentration (CC50) at 24 h in data set [2] and in data set [3] was greater than 100 µM in each case. In addition, the solubility at 24 h in data set [4] (setting [9]) and in data set [4] (setting [10]) was less than 5 µM each time. The IC50 in data set [5] (setting [11]) and in data set [5] (setting [12]) was greater than 20 µM each time. Further, in data set [8], the “antibacterial MIC ESKAPE” value is greater than 32 µg/mL.

On to `Cc1c(C)n2cc([N+](=O)[O-])nc2c(=O)n1Cc1ccccc1OC(F)(F)F` [26h, 5,6-Dimethyl-2-nitro-7-(2-(trifluoromethoxy)benzyl)imidazo[1,2-a]pyrazin-8(7H)-one], for which the “antifungal MIC” value in data set [1] was greater than 32 µg/mL. Moreover, the MIC in data set [1] and in data set [7] was greater than 32 µg/mL in each case. For the same compound, the CC50 at 24 h in data set [2] and in data set [3] was greater than 100 µM throughout. In addition, the solubility at 24 h is 4.6 ± 0.6 µM (≈ 1.76 µg/mL) in data set [4] (setting [9]) and 7.28 ± 0.695 µM (≈ 2.78 µg/mL) in data set [4] (setting [10]). In addition, the “antibacterial MIC ESKAPE” value in data set [8] is greater than 32 µg/mL.

Regarding `Cc1nc(OCc2ccccc2OC(F)(F)F)c2nc([N+](=O)[O-])cn2c1C` [26i, 5,6-Dimethyl-2-nitro-8-((2-(trifluoromethoxy)benzyl)oxy)imidazo[1,2-a]pyrazine], the “antifungal MIC” value in data set [1] was greater than 32 µg/mL. For the same compound, the MIC in data set [1] and in data set [7] was greater than 32 µg/mL each time. For the same compound, the CC50 at 24 h in data set [2] and in data set [3] was greater than 100 µM throughout. Moreover, the solubility at 24 h in data set [4] (setting [9]) and in data set [4] (setting [10]) was less than 5 µM each time. In addition, in data set [8], the “antibacterial MIC ESKAPE” value is greater than 32 µg/mL.

For the origin of these results see article PMC6311682, “Design, Synthesis, and Biological Evaluation of 2-Nitroimidazopyrazin-one/-es with Antitubercular and Antiparasitic Activity” (Journal of Medicinal Chemistry, 2018).
